Values of other authors, collected in patent publication US5143902A, “Glucagon analogs with ASP^9 replacements or deletions” (The Rockefeller University, priority 1991, dated 1992).

What was measured:
Conditions in all cases: background
[1] = system: glucagon receptor
[2] = system: adenylate cyclase
[3] = system: another binding system in the hepatocyte membrane

## Nα- trinitrophenyl [12-homoarginine] glucagon
[1]
  binding to the glucagon receptor: does bind to the glucagon receptor
[2]
  activation of adenylate cyclase: without significant activation of adenylate cyclase
[3]
  activation of another binding system producing inositol trisphosphate and calcium ions: activates another binding system in the hepatocyte membrane leading to the production of inositol trisphosphate and calcium ions
